Test results published in patent publication US7517998B2, “Non nucleoside reverse transcriptase inhibitors” (priority 2004, dated 2009).

Molecular target: T1, K103NNY181C mutant reverse transcriptase (Human immunodeficiency virus type 1 group M subtype B, UniProt P04585, K690N/Y768C)
T1 construct: mutations that occur in the reverse transcriptase segment of the pol gene
Assay: Reverse transcriptase enzymatic assay (PicoGreen), K103N/Y181C mutant RT
Type: biochemical, HIV-1
Details: IC50 mut, mutant reverse transcriptase, enzymatic assay of Example 24
How it was run: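 PicoGreen fluorescence (ex 485, em 520 nm) quantified product after EDTA stop. Reaction ran 50 min at 37 °C in pH 7.8 Tris/HCl buffer, 1% DMSO, with poly rC/dG15 template-primer (45/4.5 nM), 3.6 μM dGTP, 2.5 nM enzyme; inhibitor 10 μM–0.508 nM final after 15 min room-temperature pre-incubation.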

Structure (SMILES) | IC50 [nM]
CC(C)(C)c1ccc(-n2nnnc2SCC(=O)Nc2ccc(OCC(=O)Nc3ccc(N4CCOCC4)cc3)cc2Cl)c(Cl)c1 [Compound 5005] | 216
CC(C)(C)c1ccc(-n2nnnc2SCC(=O)Nc2ccc(OCC(=O)NN3CCOCC3)cc2Cl)c(Cl)c1 [Compound 5006] | 374
CC(C)(C)c1ccc(-n2nnnc2SCC(=O)Nc2ccc(OCC(=O)NCCN3CCOCC3)cc2Cl)c(Cl)c1 [Compound 5007] | 244
CC(C)(C)c1ccc(-n2nnnc2SCC(=O)Nc2ccc(OCC(=O)NC3CCN(Cc4ccccc4)CC3)cc2Cl)c(Cl)c1 [Compound 5008] | 861
CC(C)(C)c1ccc(-n2nnnc2SCC(=O)Nc2ccc(OCC(=O)Nc3ccccc3O)cc2Cl)c(Cl)c1 [Compound 5009] | 131
CC(C)(C)c1ccc(-n2nnnc2SCC(=O)Nc2ccc(OCC(=O)Nc3ccccc3C(=O)O)cc2Cl)c(Cl)c1 [Compound 5010] | 402
CC(C)(C)c1ccc(-n2nnnc2SCC(=O)Nc2ccc(OCC(=O)Nc3cccc(O)c3)cc2Cl)c(Cl)c1 [Compound 5011] | 69
CN(C)c1ccc(NC(=O)COc2ccc(NC(=O)CSc3nnnn3-c3ccc(C(C)(C)C)cc3Cl)c(Cl)c2)cc1 [Compound 5012] | 466
CC(C)(C)c1ccc(-n2nnnc2SCC(=O)Nc2ccc(OCC(=O)Nc3ccc(O)cc3)cc2Cl)c(Cl)c1 [Compound 5013] | 150
CC(CC(=O)O)NC(=O)COc1ccc(NC(=O)CSc2nnnn2-c2ccc(C(C)(C)C)cc2Cl)c(Cl)c1 (stereo not shown) [Compound 5014] | 146
CC(C)(C)c1ccc(-n2nnnc2SCC(=O)Nc2ccc(OCC(=O)NCCO)cc2Cl)c(Cl)c1 [Compound 5015] | 158
CC(C)(C)c1ccc(-n2nnnc2SCC(=O)Nc2ccc(OCC(=O)NCCc3ccc(O)cc3)cc2Cl)c(Cl)c1 [Compound 5016] | 116
CC(C)(C)c1ccc(-n2nnnc2SCC(=O)Nc2ccc(OCC(=O)NC(CO)C(=O)O)cc2Cl)c(Cl)c1 (stereo not shown) [Compound 5018] | 92
CC(C)(C)c1ccc(-n2nnnc2SCC(=O)Nc2ccc(OCC(=O)NCc3ccc(O)c(O)c3)cc2Cl)c(Cl)c1 [Compound 5019] | 78
CC(C)(C)c1ccc(-n2nnnc2SCC(=O)Nc2ccc(OCC(=O)NCC(=O)O)cc2Cl)c(Cl)c1 [Compound 5020] | 163
CC(C)(C)c1ccc(-n2nnnc2SCC(=O)Nc2ccc(OCC(=O)NCCc3ccc(O)c(O)c3)cc2Cl)c(Cl)c1 [Compound 5021] | 181
CC(C)(C)c1ccc(-n2nnnc2SCC(=O)Nc2ccc(OCC(=O)Nc3cccc(C(=O)O)c3)cc2Cl)c(Cl)c1 [Compound 5022] | 106
CC(C)(C)c1ccc(-n2nnnc2SCC(=O)Nc2ccc(OCC(=O)Nc3ccc(CC(=O)O)cc3)cc2Cl)c(Cl)c1 [Compound 5023] | 38
CC(C)(C)c1ccc(-n2nnnc2SCC(=O)Nc2ccc(OCC(=O)NCCc3ccncc3)cc2Cl)c(Cl)c1 [Compound 5024] | 66
CC(C)(C)c1ccc(-n2nnnc2SCC(=O)Nc2ccc(OCC(=O)NCCC(=O)O)cc2Cl)c(Cl)c1 [Compound 5025] | 124
CC(C)(C)c1ccc(-n2nnnc2SCC(=O)Nc2ccc(OCC(=O)NCc3ccc(N)cc3)cc2Cl)c(Cl)c1 [Compound 5026] | 86
CC(C)(C)c1ccc(-n2nnnc2SCC(=O)Nc2ccc(OCC(=O)NCc3ccc(C(=O)O)cc3)cc2Cl)c(Cl)c1 [Compound 5027] | 51

Structure (SMILES) | IC50 [nM]
CC(C)(C)c1ccc(-n2nnnc2SCC(=O)Nc2ccc(OCC(=O)N3CCC(C(=O)O)CC3)cc2Cl)c(Cl)c1 [Compound 5028] | 39
Cn1cc(NC(=O)COc2ccc(NC(=O)CSc3nnnn3-c3ccc(C(C)(C)C)cc3Cl)c(Cl)c2)cc1C(=O)O [Compound 5029] | 34
CC(C)(C)c1ccc(-n2nnnc2SCC(=O)Nc2ccc(OCC(=O)NC3CCOCC3)cc2Cl)c(Cl)c1 [Compound 5030] | 116
CC(C)(C)c1ccc(-n2nnnc2SCC(=O)Nc2ccc(OCC(=O)NC[C@H]3CC[C@H](C(=O)O)CC3)cc2Cl)c(Cl)c1 [Compound 5031] | 118
O=C(CSc1nnnn1-c1ccc(C2CC2)cc1Cl)Nc1ccc(OCC(=O)N2CCC(C(=O)O)CC2)cc1Cl [Compound 5032] | 51.5
O=C(COc1ccc(NC(=O)CSc2nnnn2-c2ccc(C3CC3)cc2Cl)c(Cl)c1)NCc1cccnc1 [Compound 5033] | 124
O=C(COc1ccc(NC(=O)CSc2nnnn2-c2ccc(C3CC3)cc2Cl)c(Cl)c1)NCCc1ccccn1 [Compound 5034] | 357
O=C(COc1ccc(NC(=O)CSc2nnnn2-c2ccc(C3CC3)cc2Cl)c(Cl)c1)NCCc1cccnc1 [Compound 5035] | 258
O=C(COc1ccc(NC(=O)CSc2nnnn2-c2ccc(C3CC3)cc2Cl)c(Cl)c1)NCCc1ccncc1 [Compound 5036] | 271
CN(CCc1ccncc1)C(=O)COc1ccc(NC(=O)CSc2nnnn2-c2ccc(C3CC3)cc2Cl)c(Cl)c1 [Compound 5037] | 174
O=C(COc1ccc(NC(=O)CSc2nnnn2-c2ccc(C3CC3)cc2Cl)c(Cl)c1)NCCc1cccc[n+]1[O-] [Compound 5038] | 557
O=C(COc1ccc(NC(=O)CSc2nnnn2-c2ccc(C3CC3)cc2Cl)c(Cl)c1)NCCc1ccc[n+]([O-])c1 [Compound 5039] | 479
O=C(COc1ccc(NC(=O)CSc2nnnn2-c2ccc(C3CC3)cc2Cl)c(Cl)c1)NCCc1cc[n+]([O-])cc1 [Compound 5040] | 563
CN(CCc1cc[n+]([O-])cc1)C(=O)COc1ccc(NC(=O)CSc2nnnn2-c2ccc(C3CC3)cc2Cl)c(Cl)c1 [Compound 5041] | 132
CC(C)(C)c1ccc(-n2nnnc2SCC(=O)Nc2ccc(C(=O)Nc3ccc(CC(=O)O)cc3)cc2Cl)c(Cl)c1 [Compound 6001] | 69
CC(C)(C)c1ccc(-n2nnnc2SCC(=O)Nc2ccc(C(=O)NC3CC3)cc2Cl)c(Cl)c1 [Compound 6002] | 31
CC(C)(C)c1ccc(-n2nnnc2SCC(=O)Nc2ccc(C(=O)NCc3ccco3)cc2Cl)c(Cl)c1 [Compound 6003] | 13
CN1CCN(C(=O)c2ccc(NC(=O)CSc3nnnn3-c3ccc(C(C)(C)C)cc3Cl)c(Cl)c2)CC1 [Compound 6004] | 398
CC(C)(C)c1ccc(-n2nnnc2SCC(=O)Nc2ccc(C(=O)N3CCOCC3)cc2Cl)c(Cl)c1 [Compound 6005] | 564
CC(C)(C)c1ccc(-n2nnnc2SCC(=O)Nc2ccc(C(=O)Nc3ccc(N4CCOCC4)cc3)cc2Cl)c(Cl)c1 [Compound 6006] | 46
CC(C)(C)c1ccc(-n2nnnc2SCC(=O)Nc2ccc(C(=O)NN3CCOCC3)cc2Cl)c(Cl)c1 [Compound 6007] | 30
CC(C)(C)c1ccc(-n2nnnc2SCC(=O)Nc2ccc(C(=O)NCc3cccnc3)cc2Cl)c(Cl)c1 [Compound 6008] | 26

Structure (SMILES) | IC50 [nM]
CC(C)(C)c1ccc(-n2nnnc2SCC(=O)Nc2ccc(C(=O)NC3CCN(Cc4ccccc4)CC3)cc2Cl)c(Cl)c1 [Compound 6009] | 73
CC(C)(C)c1ccc(-n2nnnc2SCC(=O)Nc2ccc(C(=O)Nc3ccccc3O)cc2Cl)c(Cl)c1 [Compound 6011] | 26
CN(C)c1ccc(NC(=O)c2ccc(NC(=O)CSc3nnnn3-c3ccc(C(C)(C)C)cc3Cl)c(Cl)c2)cc1 [Compound 6012] | 47
CC(C)(C)c1ccc(-n2nnnc2SCC(=O)Nc2ccc(C(=O)Nc3ccc(O)cc3)cc2Cl)c(Cl)c1 [Compound 6013] | 34
CC(C)(C)c1ccc(-n2nnnc2SCC(=O)Nc2ccc(C(=O)Nc3ccc(C(=O)O)cc3)cc2Cl)c(Cl)c1 [Compound 6014] | 34
CC(CC(=O)O)NC(=O)c1ccc(NC(=O)CSc2nnnn2-c2ccc(C(C)(C)C)cc2Cl)c(Cl)c1 (stereo not shown) [Compound 6015] | 39
CC(C)(C)c1ccc(-n2nnnc2SCC(=O)Nc2ccc(C(=O)NCCO)cc2Cl)c(Cl)c1 [Compound 6016] | 35
CC(C)(C)c1ccc(-n2nnnc2SCC(=O)Nc2ccc(C(=O)NCCc3ccc(O)cc3)cc2Cl)c(Cl)c1 [Compound 6017] | 33
CC(C)(C)c1ccc(-n2nnnc2SCC(=O)Nc2ccc(C(=O)NC(CO)C(=O)O)cc2Cl)c(Cl)c1 (stereo not shown) [Compound 6018] | 28
CC(C)(C)c1ccc(-n2nnnc2SCC(=O)Nc2ccc(C(=O)NCc3ccc(O)c(O)c3)cc2Cl)c(Cl)c1 [Compound 6019] | 36
CC(C)(C)c1ccc(-n2nnnc2SCC(=O)Nc2ccc(C(=O)NCCc3ccc(O)c(O)c3)cc2Cl)c(Cl)c1 [Compound 6020] | 51
CC(C)(C)c1ccc(-n2nnnc2SCC(=O)Nc2ccc(C(=O)Nc3cccc(C(=O)O)c3)cc2Cl)c(Cl)c1 [Compound 6021] | 58
CC(C)(C)c1ccc(-n2nnnc2SCC(=O)Nc2ccc(C(=O)Nc3ccc(/C=C/C(=O)O)cc3)cc2Cl)c(Cl)c1 [Compound 6022] | 14
CC(C)(C)c1ccc(-n2nnnc2SCC(=O)Nc2ccc(C(=O)NCCc3ccncc3)cc2Cl)c(Cl)c1 [Compound 6023] | 22
CC(C)(C)c1ccc(-n2nnnc2SCC(=O)Nc2ccc(C(=O)NCCC(=O)O)cc2Cl)c(Cl)c1 [Compound 6024] | 41
CSCCC(NC(=O)c1ccc(NC(=O)CSc2nnnn2-c2ccc(C(C)(C)C)cc2Cl)c(Cl)c1)C(=O)O (stereo not shown) [Compound 6025] | 41
CC(C)(C)c1ccc(-n2nnnc2SCC(=O)Nc2ccc(C(=O)NCc3ccc(N)cc3)cc2Cl)c(Cl)c1 [Compound 6026] | 51
CC(C)(C)c1ccc(-n2nnnc2SCC(=O)Nc2ccc(C(=O)NCCN3CCOCC3)cc2Cl)c(Cl)c1 [Compound 6028] | 55
CC(C)(C)c1ccc(-n2nnnc2SCC(=O)Nc2ccc(C(=O)Nc3ccncc3)cc2Cl)c(Cl)c1 [Compound 6029] | 22
CC(C)(C)c1ccc(-n2nnnc2SCC(=O)Nc2ccc(C(=O)N3CCC(C(=O)O)CC3)cc2Cl)c(Cl)c1 [Compound 6030] | 919
